In US10233157B2, “SIK inhibitor for use in a method of treating an inflammatory and/or immune disorder” (Dana-Farber Cancer Institute, Inc., priority 2012, dated 2019):

Test system: TBK1/IKKε−/− fibroblasts
Experiment: nurr77 mRNA in IL-1 stimulated TBK1/IKKε−/− embryonic fibroblasts
Type: cell-based, mouse
Settings: fibroblasts not expressing the IKK-related kinases
Experimental: Bone marrow-derived macrophages were differentiated for 7 days in DMEM supplemented with 5 ng/ml recombinant M-CSF (R&D systems), 2 mM glutamine, 10% foetal calf serum (FCS), penicillin and streptomycin. RAW264.7 cells and immortalized mouse embryonic fibroblasts (MEFs) from TBK1/IKKε^+/−, TBK1/IKKε^−/−, LKB1^+/+ and LKB1^−/− mice were cultured in DMEM containing 10% FCS, 2 mM glutamine and penicillin and streptomycin, while THP-1 monocytes were grown in RPMI-1640 supplemented with 10% FCS and antibiotics. For the culture of primary human macrophages, PBMCs were isolated from human blood using Ficoll and the monocytes were purified using anti-CD14 magnetic beads (Miltenyi Biotec). Monocytes were differentiated into macrophages for 6 days in the presence of 100 ng/ml M-CSF.

## O=C(NCCCNc1nc(Nc2cccc(CN3CCOCC3)c2)ncc1C1CC1)C1CCC1 [MRT67307]
  transcription of CREB-dependent nurr77 gene: could still enhance
